In article PMC6348381, “Discovery of an MLLT1/3 YEATS Domain Chemical Probe” (Angewandte Chemie (International Ed. in English), 2018):

Tests used:
Type in all cases: binding
BAZ1A = target: T1, BAZ1A (Homo sapiens, UniProt Q9NRL2); assay: Thermal shift assay, BAZ1A
T1 construct: purchased in-house (SGC bromodomain thermal shift / AlphaScreen panel)
Protocol: (§1) II.VII Thermal Shift Assay[6]
(§2) Thermal melting experiments were carried out using an Mx3005p Real Time PCR machine (Stratagene). Proteins were buffered in 10 mM HEPES pH 7.5, 500 mM NaCl and assayed in a 96-well plate at a final concentration of 2 μM in 20 μL volume. Compounds were added at a final concentration of 50 μM. SYPRO Orange (Molecular Probes) was added as a fluorescence probe at a dilution of 1:1000. Excitation and emission filters for the SYPRO-Orange dye were set to 465 nm and 590 nm, respectively. The temperature was raised with a step of 3 °C per minute from 25 °C to 96 °C and fluorescence readings were taken at each interval. The unfolding curves were fitted using the Boltzmann equation to determine the middle point of the transition.

BRD7 = target: T2, BRD7 (Homo sapiens, UniProt Q9NPI1); assay: Thermal shift assay, BRD7
T2 construct: purchased in-house (SGC bromodomain thermal shift / AlphaScreen panel)
T2 sequence (Q9NPI1 1-651): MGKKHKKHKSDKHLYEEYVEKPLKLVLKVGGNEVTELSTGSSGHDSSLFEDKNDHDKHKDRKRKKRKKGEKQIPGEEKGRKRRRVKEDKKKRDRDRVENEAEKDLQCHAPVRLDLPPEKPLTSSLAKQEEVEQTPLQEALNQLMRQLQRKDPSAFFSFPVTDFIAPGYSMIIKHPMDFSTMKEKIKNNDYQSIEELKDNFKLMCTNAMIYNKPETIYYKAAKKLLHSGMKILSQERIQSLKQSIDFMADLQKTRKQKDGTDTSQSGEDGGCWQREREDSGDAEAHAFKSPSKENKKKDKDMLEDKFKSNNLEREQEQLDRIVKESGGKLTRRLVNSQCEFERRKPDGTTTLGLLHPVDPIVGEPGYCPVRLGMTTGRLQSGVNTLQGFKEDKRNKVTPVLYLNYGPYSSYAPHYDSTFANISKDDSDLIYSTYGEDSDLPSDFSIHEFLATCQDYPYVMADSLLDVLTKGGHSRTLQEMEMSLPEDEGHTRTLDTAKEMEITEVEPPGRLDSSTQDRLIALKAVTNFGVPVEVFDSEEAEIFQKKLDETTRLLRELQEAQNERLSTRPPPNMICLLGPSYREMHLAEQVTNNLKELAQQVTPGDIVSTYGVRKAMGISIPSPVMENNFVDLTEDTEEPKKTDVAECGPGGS
Protocol: as §1, §2

KIAA1240 = target: T3, KIAA1240 (Homo sapiens, UniProt Q9ULI0); assay: Thermal shift assay, KIAA1240
T3 construct: purchased in-house (SGC bromodomain thermal shift / AlphaScreen panel)
T3 sequence (Q9ULI0 1-1458): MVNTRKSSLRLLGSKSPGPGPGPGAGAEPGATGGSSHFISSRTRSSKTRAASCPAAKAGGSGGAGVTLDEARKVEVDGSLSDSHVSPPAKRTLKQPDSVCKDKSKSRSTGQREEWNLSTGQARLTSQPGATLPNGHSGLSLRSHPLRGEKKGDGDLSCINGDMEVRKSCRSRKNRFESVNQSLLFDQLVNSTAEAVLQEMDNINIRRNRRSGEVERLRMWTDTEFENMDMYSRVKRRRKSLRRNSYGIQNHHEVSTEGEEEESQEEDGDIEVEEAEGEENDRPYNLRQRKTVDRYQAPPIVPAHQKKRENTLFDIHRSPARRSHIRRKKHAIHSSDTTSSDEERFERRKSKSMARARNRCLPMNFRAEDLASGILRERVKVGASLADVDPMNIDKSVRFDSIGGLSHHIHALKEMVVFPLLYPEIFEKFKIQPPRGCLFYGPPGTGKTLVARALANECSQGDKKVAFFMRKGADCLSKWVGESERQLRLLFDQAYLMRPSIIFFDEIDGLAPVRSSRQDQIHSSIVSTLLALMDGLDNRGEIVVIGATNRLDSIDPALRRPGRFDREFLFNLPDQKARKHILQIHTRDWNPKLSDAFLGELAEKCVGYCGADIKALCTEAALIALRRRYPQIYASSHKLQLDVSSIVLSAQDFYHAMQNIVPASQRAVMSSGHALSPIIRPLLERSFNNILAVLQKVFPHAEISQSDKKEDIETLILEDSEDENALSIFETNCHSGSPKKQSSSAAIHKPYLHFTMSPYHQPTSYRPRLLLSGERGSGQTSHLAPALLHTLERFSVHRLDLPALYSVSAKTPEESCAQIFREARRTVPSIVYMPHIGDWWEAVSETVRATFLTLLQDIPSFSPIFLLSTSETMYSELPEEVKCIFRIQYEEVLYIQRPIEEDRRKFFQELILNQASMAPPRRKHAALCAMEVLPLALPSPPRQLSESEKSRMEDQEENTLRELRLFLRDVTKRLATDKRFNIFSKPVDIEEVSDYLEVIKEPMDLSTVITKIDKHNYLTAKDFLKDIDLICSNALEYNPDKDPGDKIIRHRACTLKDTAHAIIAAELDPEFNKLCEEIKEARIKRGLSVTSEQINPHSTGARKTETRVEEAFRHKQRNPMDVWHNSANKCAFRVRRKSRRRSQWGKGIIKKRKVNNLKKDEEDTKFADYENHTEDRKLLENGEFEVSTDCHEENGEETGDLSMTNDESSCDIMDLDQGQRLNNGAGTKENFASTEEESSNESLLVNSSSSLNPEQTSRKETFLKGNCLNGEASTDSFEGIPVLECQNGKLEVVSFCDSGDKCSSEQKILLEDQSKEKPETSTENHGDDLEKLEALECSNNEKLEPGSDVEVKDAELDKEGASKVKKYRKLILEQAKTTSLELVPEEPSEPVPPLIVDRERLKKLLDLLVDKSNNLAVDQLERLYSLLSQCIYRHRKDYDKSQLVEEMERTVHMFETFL
Protocol: as §1, §2

PB1(4) = target: T4, PB1(4) (Homo sapiens, UniProt Q86U86); assay: Thermal shift assay, PB1(4)
T4 construct: PB1(4); purchased in-house (SGC bromodomain thermal shift / AlphaScreen panel)
Protocol: as §1, §2

T1 sequence (Q9NRL2 whole entry): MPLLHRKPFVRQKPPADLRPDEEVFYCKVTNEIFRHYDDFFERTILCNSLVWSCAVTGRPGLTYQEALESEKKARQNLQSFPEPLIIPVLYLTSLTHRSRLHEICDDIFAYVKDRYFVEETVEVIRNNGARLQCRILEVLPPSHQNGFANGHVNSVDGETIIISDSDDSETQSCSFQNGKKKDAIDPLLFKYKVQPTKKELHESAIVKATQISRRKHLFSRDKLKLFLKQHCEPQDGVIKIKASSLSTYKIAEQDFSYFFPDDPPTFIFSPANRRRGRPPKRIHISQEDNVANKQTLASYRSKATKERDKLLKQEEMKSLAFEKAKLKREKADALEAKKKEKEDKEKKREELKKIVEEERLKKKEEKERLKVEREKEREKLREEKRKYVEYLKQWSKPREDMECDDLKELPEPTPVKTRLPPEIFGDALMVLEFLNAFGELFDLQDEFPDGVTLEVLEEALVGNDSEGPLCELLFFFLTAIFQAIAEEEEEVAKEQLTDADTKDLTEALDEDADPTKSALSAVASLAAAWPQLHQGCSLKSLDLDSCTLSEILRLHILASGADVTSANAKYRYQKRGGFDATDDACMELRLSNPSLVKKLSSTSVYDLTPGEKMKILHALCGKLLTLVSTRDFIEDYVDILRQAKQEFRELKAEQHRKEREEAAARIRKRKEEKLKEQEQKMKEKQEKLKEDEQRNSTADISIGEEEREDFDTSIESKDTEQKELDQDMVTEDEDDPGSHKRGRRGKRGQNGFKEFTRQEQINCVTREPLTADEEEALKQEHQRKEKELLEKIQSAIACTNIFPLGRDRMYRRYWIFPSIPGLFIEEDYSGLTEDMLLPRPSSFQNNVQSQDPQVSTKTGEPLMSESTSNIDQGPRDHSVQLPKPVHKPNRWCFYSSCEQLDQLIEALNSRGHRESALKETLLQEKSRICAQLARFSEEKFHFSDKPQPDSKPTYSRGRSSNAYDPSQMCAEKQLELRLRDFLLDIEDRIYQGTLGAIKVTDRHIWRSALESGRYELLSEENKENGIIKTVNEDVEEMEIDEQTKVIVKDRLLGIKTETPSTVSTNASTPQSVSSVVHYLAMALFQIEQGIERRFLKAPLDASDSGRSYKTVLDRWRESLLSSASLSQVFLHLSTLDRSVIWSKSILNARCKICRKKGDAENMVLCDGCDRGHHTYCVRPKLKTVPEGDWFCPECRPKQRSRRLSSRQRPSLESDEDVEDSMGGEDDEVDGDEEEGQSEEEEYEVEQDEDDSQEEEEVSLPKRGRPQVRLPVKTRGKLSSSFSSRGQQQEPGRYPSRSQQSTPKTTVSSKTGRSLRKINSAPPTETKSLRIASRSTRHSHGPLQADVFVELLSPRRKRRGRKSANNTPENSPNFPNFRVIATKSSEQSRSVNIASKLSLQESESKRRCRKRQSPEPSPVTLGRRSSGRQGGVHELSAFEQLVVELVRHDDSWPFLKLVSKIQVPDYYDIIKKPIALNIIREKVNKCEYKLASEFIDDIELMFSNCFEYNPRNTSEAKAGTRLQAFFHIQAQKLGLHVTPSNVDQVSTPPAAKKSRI
T4 sequence (Q86U86 496-637 limits assumed): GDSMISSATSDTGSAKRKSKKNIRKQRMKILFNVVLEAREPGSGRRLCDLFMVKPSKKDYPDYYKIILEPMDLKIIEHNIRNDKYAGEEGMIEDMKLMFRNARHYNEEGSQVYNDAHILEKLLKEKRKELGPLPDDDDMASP

SMILES	Thermal stabilisation, BAZ1A (BAZ1A; 10 µM compound concentration)	Thermal stabilisation, BRD7 (BRD7; 10 µM compound concentration)	Thermal stabilisation, KIAA1240 (KIAA1240; 10 µM compound concentration)	Thermal stabilisation, PB1(4) (PB1(4); 10 µM compound concentration)	Thermal stabilisation, BAZ1A (BAZ1A; 50 μM compound)	Thermal stabilisation, BRD7 (BRD7; 50 μM compound)	Thermal stabilisation, KIAA1240 (KIAA1240; 50 μM compound)	Thermal stabilisation, PB1(4) (PB1(4); 50 μM compound)
CCOC(=O)Nc1cc(-c2ccc(C)c(NS(C)(=O)=O)c2)nn2c(C)nnc12 [Bromosporine, reference compound]	-0.77	8.48	0.59	1.035	–	–	–	–
C[C@H]1CCCN1Cc1nc2cc(NC(=O)c3ccc4c(cnn4C)c3)ccc2[nH]1 [Compound 92]	–	–	–	–	-0.26	-0.08	0.15	-0.215
COC(=O)c1ccc(C(=O)Nc2ccc3[nH]c(CN4CCCCC4)nc3c2)cc1 [Compound 1]	–	–	–	–	1.085	0.57	0.355	0.22
